Data published in patent US8257714B2, “Compositions and methods for immunotherapy of cancer and infectious diseases” (priority 2003, dated 2012).

Tests used:
[1] = test system: DC-activity induced by ARP preparations; assay: Effect of divalent cations on DC-activity of ARP; format: cell-based, mouse; details: mM-μM concentration range
Source text: Some differences exist in the interaction of copper and zinc with ARP and must be explored further. […] The former was inhibited by both-calcium and magnesium ions, while the latter—only by magnesium ions.

[2] = test system: S-180 tumor; assay: Murine S-180 tumor model; format: in vivo, BALB/c mice; details: GM-CSF alone, 20 ng/mouse/day
Protocol: In a preferred embodiment, The S-180 cell line (ATCC CCL 8, batch F4805) is chosen as the tumor model because the same line is capable of growing both in animals and in culture (in both serum-containing and serum-free conditions). Tumors are established in mice (BALB/c) by injection of cell suspensions obtained from tissue culture. Approximately […] to 3×10^6 cells are injected intra-peritoneally per mouse. The tumor developed as multiple solid nodules at multiple sites within the peritoneal cavity and cause death in most of the animals within 10 to 15 days. In addition to monitoring animal survival, their condition is qualitatively assessed as tumor growth progressed and used to generate a tumor index as described in the following paragraph.
To establish an estimate of drug activity in tumor model experiments, an index can be developed that combines observational examination of the animals as well as their survival status. […]
The S-180 cell line (ATCC CCL 8, batch F4805) was chosen as the tumor model because the same line was capable of growing both in animals and in culture (in both serum-containing and serum-free conditions). […] In addition to monitoring animal survival, their condition was qualitatively assessed as tumor growth progressed and used to generate a tumor index. […]

[3] = test system: Candida albicans; assay: Candida albicans infection in mice; format: in vivo, CDI mice
Protocol: Groups of female CDI mice were inoculated intravenously (i.v.) on Day 0 with an infectious dose of Candida albicans calculated to provide 60-100% mortality in the control group. Groups of mice were administered, by i.p. injection, one of three concentrations of the test material (0.1, 1.0 or 10.0 ng/mouse/day) or vehicle on Day 0, approximately 1.5 hours following infectious challenge, and again on Days 1 through 4, for a total of five doses. An additional assay control group of mice was administered approximately 80 mg of fluconazole per kg of body weight by oral gavage approximately 1, 24, 48 and 72 hours following infectious challenge.

[4] = test system: Plasmodium yoelii; assay: Malaria in mice; format: in vivo, C57BL/6 mice; details: 40 mg/kg i.p. Days 1-5
Protocol: Groups of male C57BL/6 mice were inoculated i.v. on Day 0 with an infectious dose of Plasmodium yoelii. Groups of mice were administered, by i.p. injection, one of three concentrations of the test material (0.1, 1.0 or 10.0 ng/mouse/day) or vehicle on Day 1 and again on Days 2 through 5, for a total of five doses. An additional assay control group of mice was administered approximately 40 mg of Chloroquine per kg of body weight by i.p. injection on Days 1 through 5 as well.

[5] = test system: freshly isolated dendritic cells (CD11c+ splenocytes); assay: Dendritic cell (DC) assay: IL12 release from freshly isolated dendritic cells; format: cell-based, BALB/c mice; details: tested for synergism and inhibition
Source text: In a preferred embodiment, dendritic cell (DC) assay is used to follow interleukin-12 (IL-12) release from freshly isolated dendritic cells as an index of DC activation (see section 12.3). […] Briefly, by way of example but not limitation, a DC assay can be carried out as follows: freshly isolated dendritic cells (CD11c^+ splenocytes, e.g., isolated from the spleens of BALB/c mice within ten hours of assaying the activity) are suspended at a density of 0.5×10^6 cells per mL in cytokine supplemented culture media (GM-CSF, 1.0 ng/ml; IL-4, 1.0 ng/ml; IFNg, 3.0 ng/ml; anti mouse CD40, 0.5 mg/ml). […] Mouse IL-12 release from the dendritic cells (CD11c^+ splenocytes) is then measured using ELISA.
To follow the activity in semi-purified preparations of BEX, an assay which follows IL12 release from freshly isolated dendritic cells (DCs) as an index of DC activation was developed. This activity is highly correlated with both NK-CMC in vitro and anti-tumor activity in vivo.
DCs were isolated from the spleens of male BALB/c mice 8-12 weeks of age (Harlan Bioproducts for Science, Indianapolis, Ind.), using the magnetic assisted cell separation (MACS) system purchased from Miltenyi Biotech. In summary: Spleens were aseptically removed from mice and placed into a petri dish containing 5 mL holding media (DMEM/F12 supplemented with 10% FCS and antibiotics). Each spleen was then injected with ˜0.5 mls collagenase D solution (1 mg/mL in 10 mM Hepes-NaOH, pH 7.4, 150 mM NaCl, 5 mM MgCl2, 1.8 mM CaCl2), placed into 5-10 mL collagenase D, cut into 5-6 pieces and incubated at 37° C. for 45-60 min. Collagenase-digested spleens were then processed with glass slides and passed through a 70 μm nylon mesh cell strainer. After the strainer was flushed with 40 mL culture media, cells were centrifuged (8 min @ 200×G), suspended in 1 mL PBS and subjected to red blood cell lysis by incubating the cell suspension for 5 min at room temperature in 10 mL lysis buffer (155 mM NH4Cl, 10 mM KHCO3, 0.1 mM EDTA), followed by dilution in PBS to 50 mL and centrifugation (8 min @ 200×g). The splenocytes were then suspended in 10 mL MACS buffer (PBS pH 7.2, supplemented with 2 mM EDTA and 0.5% BSA), passed through a 40 μm nylon mesh cell strainer which was flushed with 40 mL MACS buffer. A preliminary cell count was taken at this time, prior to centrifugation (8 min @ 200×G). The splenocytes were suspended at a density of 10^8 cells per 400 μL MACS buffer. Paramagnetic MicroBeads coated with anti-CD11c^+ antibody were mixed with the splenocyte suspension (100 μL per 10^8 cells), incubated at +4° C. for 15 min, washed, suspended in 1.0 mL MACS buffer and passed through a MS+ separation column placed within a strong magnetic field. CD11c^+ cells were retained in the column whereas CD11c^− cells were washed off the column as the flow-through cell fraction. CD11c^+ cells were then collected by removing the column out of the magnetic field and flushing the column twice with 1 mL of MACS buffer. CD11c^+ cells were washed once with culture media and suspended at a density of 0.5×10^6 cells per mL in cytokine supplemented culture media {DMEM/F12 supplemented with 10% FCS and gentamicin containing mouse GM-CSF (1 ng/mL), mouse IL-4 (1 ng/mL), mouse IFNγ (3 ng/mL) and anti mouse CD40 (0.5 mg/mL)}.
Mouse IL12 release from CD11c^+ splenocytes was measured using ELISA. Briefly, CD11c+ cell culture supernatants were sampled following an overnight incubation (usually 15-18 hrs). Media samples ([…]) were added to ELISA plates coated with anti mouse IL12 (p70) capture antibody (R&D #MAB419; 250 ng in 100 μL per well) and incubated either at 37° C. or room temperature for 2 hrs. The ELISA plates were washed extensively with wash buffer after which 100 μL per well of detection antibody/detection reagent (biotinylated anti-mouse IL12; R&D #BAF419 at 50 ng/mL and streptavidin-HRP) was added. […]

[6] = test system: Mouse sarcoma 180 cells; assay: NK cell-mediated cytotoxicity (NK-CMC) assay, LGL/S180 co-culture; format: cell-based; details: wide range of concentrations, presence and absence of IL-2 (125 U/ml)
Protocol: In one embodiment, a NK cell assay is used to assess ARP-induced cytotoxic activity of NK-like cells (see section 12.2). Briefly, by way of example but not limitation, a NK cell assay can be carried out as follows: large granular lymphocytes (LGLs) are co-cultured with tumor cells at various ratios (effector to target ratio) for four days at 37° C., 5% CO2. […] The culture is terminated at the end of day 4 and vitally stained using a MTT cell viability quantification assay (see Mossman, T. J. Immunol. Methods 65: 55 (1983); and Sigma Chemical MTT (M5655) product application note). Culture media is aspirated and the remaining cells are washed and replaced with DMEM/F12 plus FCS, containing MTT. The cells are further incubated for 4-5 hours at 37° C. Absorbance is measured with the aid of a plate reader. Decreased absorbance indicated a decrease in the number of viable cells per well (i.e., cytotoxicity). Absorbance is measured again after the MTT is solubilized by replacement of the medium with 2-propanol containing HCl, which gives a uniform color throughout the well. NK-inducing activity is calculated relative to negative (PBS/BSA) and positive (internal standard) controls.
Spleens (10-15 per experiment) were aseptically removed from male Balb/C mice 6-10 weeks of age. Splenocytes were “squeezed” out of spleens using 2 sterile glass microscope slides. Cells were collected in approximately 10 ml of DMEM/F 12 containing 10% fetal calf serum (FCS) and gentamicin (50 μg/ml). Single cell suspensions were generated by passing collected cells through a 70 μm nylon mesh screen. After washing the cell pellet once with PBS (centrifuged at 675×g for 5 min), red blood cells were lysed by brief hypotonic shock (i.e. exposure to sterile distilled, deionized water, followed immediately with appropriate volumes of 10×PBS to return to isotonicity). Remaining cells were centrifuged and resuspended in DMEM/F12+10% FCS and transferred to 75 cm^2 flasks each containing 25 mls DMEM/F12+10% FCS (cells from 5 spleens per flask). The cells were incubated for 60 min. at 37° C. to selectively remove readily adherent cells (mainly fibroblasts and macrophages). After the incubation, the flasks were gently shaken and the non-adherent cells were removed, pelleted by centrifugation, and resuspended in DMEM/F12 (no supplements) (1.0 mL/10^8 cells). A 1.0 mL volume of these cell suspensions were carefully layered onto a 70%/60%/40% (2 mL/4 mL/4 mL) Percoll™ gradients in 15 ml centrifuge tubes and centrifuged for 30 min at 675×G. The cells which sediment at the 40/60 interface represent primarily large granular lymphocytes (LGLs), enriched with NK cells. These cells were carefully removed with a pasteur pipet, centrifuged, washed once with PBS and resuspended in approximately 5 mL DMEM/F12 supplemented with gentamicin (50 μg/mL) and 10% fetal calf serum. Cell counts and appropriate dilutions of LGL cells were made with these cells, as described below. For convenience this LGL cell preparation is interchangeably referred to as NK cells.
Mouse sarcoma 180 cells were seeded into 96 well plates at a density of 5×10^3 cells per well in 100 μl DMEM/F12, supplemented with 10% FCS and gentamicin (50 μg/mL). […] NK cells were added in 100 μL of supplemented DMEM/F12 at designated densities: 0 NK cells/well; 5×10^4 NK cells/well (1:10 target/effector ratio); 1.25×10^5 NK cells/well (1:25 target/effector ratio); 2.5×10^5 NK cells/well (1:50 target/effector ratio); and, 5×10^5 NK cells/well (1:100 target/effector ratio). (Note: routinely, only the 1:50 and 1:100 ratios were used for screening purposes. IL2 was added as a media supplement with final concentration of 125 U/mL.). Co-cultures were incubated for 4 days at 37° C., 5% CO2, and terminated and vitally stained using a MTT cell viability quantification assay (see Mossman, T. J. Immunol. Methods 65:55 (1983); and Sigma Chemical MTT (M5655) product application note). […]

Molecule: [Cl-].[Cl-].[Zn+2] [ZnCl2]
- inhibition of DC-activity of crude ARP preparations [1]: showed inhibition of activity

Molecule: [Cl-].[Cl-].[Mg+2] [MgCl2]
- inhibition of DC-activity of crude ARP preparations [1]: did not

Molecule: GM-CSF: granulocyte macrophage-colony stimulating factor
- survivorship versus sham injections [2]: followed similar survivorship curves

Molecule: OC(Cn1cncn1)(Cn1cncn1)c1ccc(F)cc1F [Fluconazole, fluconazole]
- Percent Mortality ([3]; ~80 mg/kg oral gavage): 0%
- Mean Survival Time ([3]; ~80 mg/kg oral gavage 1, 24, 48 and 72 hours after challenge, all animals): 14.0 days

Molecule: CCN(CC)CCCC(C)Nc1ccnc2cc(Cl)ccc12 (centres unmarked) [Chloroquine]
- Parasitized Erytthrocytes % [4]: 12%
- Survival (Days) ± SD [4]: 37.0 ± 0.7 days

Molecule: [Cl][Cu][Cl] [CuCl2]
- inhibition of DC-activity of crude ARP preparations [1]: showed inhibition of activity

Molecule: [Ca+2].[Cl-].[Cl-] [CaCl2]
- inhibition of DC-activity of crude ARP preparations [1]: did not

B1: IL-10: interleukin (protein, UniProt P18893 19-178, looked up)
Interleukin-10: SRGQYSREDNNCTHFPVGQSHMLLELRTAFSQVKTFFQTKDQLDNILLTDSLMQDFKGYLGCQALSEMIQFYLVEVMPQAEKHGPEIKEHLNSLGEKLKTLRMRLRRCHRFLPCENKSKAVEQVKSDFNKLQDQGVYKAMNEFDIFINCIEAYMMIKMKS
- DC mIL12 Release [5]: inhibitory
- NK-CMC Activity [6]: −
